Tested on: pentosidine formation
Assay: Inhibitory effects of phenylene derivatives (II) on AGEs (pentosidine) formation
Type: biochemical
Set-up: AGE Formation Inhibition Ratio (%): concentration or dose not given beside the values
Conditions: same method used in Test Example 1
Procedure: Plasma was collected from hemodialysis patients prior to dialysis with the patients' consent, and the plasma was filtered and sterilized. To the plasma (450 μL) was added solutions of TM-2002 in dimethylsulfoxide (50 μL) (final concentrations: 0.8, 2.0, and 5.0 mM), and the mixtures were incubated for 1 week at 37° C. The levels of the pentosidine formation were measured.
Pentosidine was measured as follows. To each sample (50 μL) after incubation was added an equal volume of 10% trichloroacetic acid, and the mixture was subsequently centrifuged at 5,000 g for 5 minutes. After the supernatant was removed, the pellet was washed with 5% trichloroacetic acid (300 μL). The pellet was dried under reduced pressure, and subsequently hydrolyzed in a 6N HCl solution (100 μL) under a nitrogen atmosphere for 16 hours at 110° C. To the acid hydrolysate was then added 5N NaOH (100 μL) and 0.5 M phosphate buffer (pH 7.4) (200 μL); the mixture was subsequently filtered through a micropore filter with 0.5 μm pores and diluted with PBS. The concentration of the released pentosidine was measured by reverse-phase HPLC using a fluorescence detector (RF-10A, Shimadzu Corporation) (Miyata, T. et al.; Proc. Natl. Acad. Sci. USA, Vol. 93, p. 2353-2358, 1996). The effluent was monitored at the excitation/emission wavelength of 335/385 nm. Synthetic pentosidine was used as the reference material. The detection limit of pentosidine was 0.1 pmol/mg protein. […]

| SMILES | AGE Formation Inhibition Ratio (%) | Pentosidine Formation Ratio (%) |
| --- | --- | --- |
| O=C1NC(=O)C(c2ccc(CN(C(=O)C3CCCCC3)c3cccc(C(=O)O)c3)cc2)S1 (stereo not shown) [(II-18)] | 85% | 15% |
| O=C(O)c1cccc(N(Cc2ccc(-c3ccccc3-c3nnn[nH]3)cc2)C(=O)CCc2ccccc2)c1 [(II-1)] | 80% | 20% |
| O=C1NC(=O)C(c2ccc(Cn3c(-c4ccccn4)nc4ccccc43)cc2)S1 (stereo not shown) [(II-15)] | 80% | 20% |
| CS(=O)(=O)N(Cc1ccc(C2SC(=O)NC2=O)cc1)c1ccccc1 (stereo not shown) [(II-8)] | 81% | 19% |
| O=C1NC(=O)C(c2ccc(CN(c3cccc(C(=O)O)c3)S(=O)(=O)c3ccccc3)cc2)S1 (stereo not shown) [(II-22)] | 85% | 15% |
| CC1(C)Cc2ccc(C(=O)O)cc2N(Cc2ccc(C3SC(=O)NC3=O)cc2)C1=O (stereo not shown) [(II-29)] | 86% | 14% |
| O=C(O)c1cccc(N(CC(=O)c2ccccc2)Cc2ccc(-c3ccccc3-c3nnn[nH]3)cc2)c1 [(II-42)] | 93% | 7% |
| O=C1NC(=O)C(c2ccc(CN(C(=O)c3cccnc3)c3cccc(C(=O)O)c3)cc2)S1 (stereo not shown) [(II-19)] | 80% | 20% |
| Cc1nc(-c2ccc(S(=O)(=O)N(Cc3ccc(C4SC(=O)NC4=O)cc3)c3cccc(C(=O)O)c3)cc2)cs1 (stereo not shown) [(II-63)] | 80% | 20% |
| CC1CCc2ccc(C(=O)O)cc2N1Cc1ccc(C2SC(=O)NC2=O)cc1 (stereo not shown) [(II-7)] | 87% | 13% |
| CCCc1cc2ccc(C(=O)O)cc2n(Cc2ccc(C3SC(=O)NC3=O)cc2)c1=O (stereo not shown) [(II-17)] | 84% | 16% |
| CCCCCN(Cc1ccc(C2SC(=O)NC2=O)cc1)c1cccc(C(=O)O)c1 (stereo not shown) [(II-6)] | 80% | 20% |
| CCCC1CCc2ccc(C(=O)O)cc2N(Cc2ccc(C3SC(=O)NC3=O)cc2)C1=O (stereo not shown) [(II-28)] | 84% | 16% |
| O=C1NC(=O)C(c2ccc(CN(c3cccc(C(=O)O)c3)S(=O)(=O)c3ccc(-c4ccccc4)cc3)cc2)S1 (stereo not shown) [(II-24)] | 91% | 9% |
| O=C1NC(=O)C(c2ccc(CN3C(=O)C4(CC4)Cc4ccc(C(=O)O)cc43)cc2)S1 (stereo not shown) [(II-30)] | 87% | 13% |
| Cc1oc(-c2ccccc2)nc1CC(=O)N(Cc1ccc(C2SC(=O)NC2=O)cc1)c1cccc(C(=O)O)c1 (stereo not shown) [(II-33)] | 82% | 18% |
| O=C1NC(=O)C(c2ccc(CN(c3cccc(C(=O)O)c3)S(=O)(=O)c3ccc4ccccc4c3)cc2)S1 (stereo not shown) [(II-25)] | 99% | 1% |
| Cc1ccc(S(=O)(=O)N(Cc2ccc(C3SC(=O)NC3=O)cc2)c2cccc(C(=O)O)c2)cc1 (stereo not shown) [(II-23)] | 90% | 10% |
| CCCCS(=O)(=O)N(Cc1ccc(C2SC(=O)NC2=O)cc1)c1ccccc1 (stereo not shown) [(II-9)] | 80% | 20% |
| CS(=O)(=O)N(Cc1ccc(C2SC(=O)NC2=O)cc1)c1cccc(C(=O)O)c1 (stereo not shown) [(II-10)] | 86% | 14% |

Source: patent US20120065198A2, “Detection and Treatment of Schizophrenia” (Tokai University Educational System, priority 2007, published 2012)
